ChEMBL document CHEMBL2146373, “How to blast osteoblasts? Novel dicarba analogues of amylin-(1-8) to treat osteoporosis” (Bioorg Med Chem, 2012)
Calls of active or inactive are those of the source. The calls are words filed in the database; no cut-off is given here.

Tested on: Osteoblast
Assay: Osteoblast activity in neonatal rat calvarie-derived primary osteoblasts assessed as [3H]thymidine incorporation at 10^-10 to 10^-8 M by beta counting
Type: functional, cell-based

| SMILES | Activity |
| --- | --- |
| C[C@H](NC(=O)[C@@H]1CC=CC[C@H](NC(=O)[C@@H](N)CCCCN)C(=O)N[C@@H](CC(N)=O)C(=O)N2CCC[C@H]2C(=O)N[C@@H](C)C(=O)N[C@@H]([C@@H](C)O)C(=O)N1)C(N)=O (mixture of isomers; 2a) | inactive |
| C[C@H](NC(=O)[C@@H]1CC=CC[C@H](NC(=O)[C@@H](N)CCCCN)C(=O)N[C@@H](CC(N)=O)C(=O)N2CCC[C@H]2C(=O)N[C@@H](C)C(=O)N[C@@H]([C@@H](C)O)C(=O)N1)C(N)=O (mixture of isomers; 2b) | inactive |
| C[C@H](NC(=O)[C@@H]1CC=CC[C@H](NC(=O)[C@@H](N)CCCCN)C(=O)N[C@@H](CC(N)=O)C(=O)N[C@@H]([C@@H](C)O)C(=O)N[C@@H](C)C(=O)N[C@@H]([C@@H](C)O)C(=O)N1)C(N)=O (mixture of isomers) | Active |
| C[C@H](NC(=O)[C@@H]1CCCCNC(=O)OCC=CCOC(=O)NCCCC[C@H](NC(=O)[C@@H](N)CCCCN)C(=O)N[C@@H](CC(N)=O)C(=O)N[C@@H]([C@@H](C)O)C(=O)N[C@@H](C)C(=O)N[C@@H]([C@@H](C)O)C(=O)N1)C(N)=O (mixture of isomers; 5b) | Active |
| C[C@H](NC(=O)[C@@H]1CCCCNC(=O)OCC=CCOC(=O)NCCCC[C@H](NC(=O)[C@@H](N)CCCCN)C(=O)N[C@@H](CC(N)=O)C(=O)N[C@@H]([C@@H](C)O)C(=O)N[C@@H](C)C(=O)N[C@@H]([C@@H](C)O)C(=O)N1)C(N)=O (mixture of isomers; 5a) | Active |
